The values that follow come from the kinase profiling compilation of Christmann-Franck et al. (2016).

Sequence of LTK (human) (P29376 whole entry, looked up): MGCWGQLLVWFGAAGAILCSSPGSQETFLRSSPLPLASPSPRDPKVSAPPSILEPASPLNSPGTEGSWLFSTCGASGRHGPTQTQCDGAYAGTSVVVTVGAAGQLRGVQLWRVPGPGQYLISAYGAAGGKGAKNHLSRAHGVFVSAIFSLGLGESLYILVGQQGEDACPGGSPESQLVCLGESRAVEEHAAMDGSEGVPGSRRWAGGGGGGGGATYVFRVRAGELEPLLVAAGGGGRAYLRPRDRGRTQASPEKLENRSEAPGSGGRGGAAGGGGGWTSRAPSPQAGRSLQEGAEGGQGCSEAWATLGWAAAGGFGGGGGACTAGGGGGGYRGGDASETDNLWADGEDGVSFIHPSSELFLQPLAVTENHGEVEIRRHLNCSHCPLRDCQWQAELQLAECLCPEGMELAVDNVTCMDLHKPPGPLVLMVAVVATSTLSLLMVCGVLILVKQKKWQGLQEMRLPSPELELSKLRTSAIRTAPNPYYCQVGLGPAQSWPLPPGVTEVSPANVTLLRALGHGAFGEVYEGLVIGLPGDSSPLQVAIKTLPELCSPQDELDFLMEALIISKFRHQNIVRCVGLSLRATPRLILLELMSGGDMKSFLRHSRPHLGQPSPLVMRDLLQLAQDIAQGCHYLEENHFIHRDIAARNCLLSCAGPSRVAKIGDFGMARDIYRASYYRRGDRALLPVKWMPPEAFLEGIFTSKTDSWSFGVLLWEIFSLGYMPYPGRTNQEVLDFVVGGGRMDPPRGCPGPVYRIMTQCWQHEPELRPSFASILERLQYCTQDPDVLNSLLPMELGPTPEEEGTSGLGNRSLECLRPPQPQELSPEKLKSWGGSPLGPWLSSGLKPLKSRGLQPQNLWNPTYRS

The target of the first assay is DYRK1B (human) (UniProt Q9Y463). Briefly: radiometric filter-binding kinase assay, Kinase HotSpot. The note with it: compound 0.5 µM; ATP 10 µM.
Sequence of DYRK1B (human) (Q9Y463 whole entry, looked up): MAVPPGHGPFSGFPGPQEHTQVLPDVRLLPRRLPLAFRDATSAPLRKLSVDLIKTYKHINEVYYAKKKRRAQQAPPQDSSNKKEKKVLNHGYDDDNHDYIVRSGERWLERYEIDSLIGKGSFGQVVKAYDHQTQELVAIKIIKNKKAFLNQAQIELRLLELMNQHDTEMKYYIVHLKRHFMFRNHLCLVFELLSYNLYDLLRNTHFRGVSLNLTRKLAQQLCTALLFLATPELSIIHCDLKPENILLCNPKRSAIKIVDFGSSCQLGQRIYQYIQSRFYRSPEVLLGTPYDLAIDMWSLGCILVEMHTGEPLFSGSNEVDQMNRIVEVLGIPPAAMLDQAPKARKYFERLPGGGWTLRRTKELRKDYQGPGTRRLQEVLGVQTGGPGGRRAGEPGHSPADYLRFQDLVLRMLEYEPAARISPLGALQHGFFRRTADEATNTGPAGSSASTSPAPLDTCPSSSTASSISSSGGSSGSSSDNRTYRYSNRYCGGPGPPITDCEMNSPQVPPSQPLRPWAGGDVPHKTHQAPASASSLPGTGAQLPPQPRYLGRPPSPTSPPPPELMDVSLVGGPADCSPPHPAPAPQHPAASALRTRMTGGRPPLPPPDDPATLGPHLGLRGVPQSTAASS
As to `COC(=O)[C@]1(O)C[C@@H]2O[C@@]1(C)n1c3ccccc3c3c4c(c5c6ccccc6n2c5c31)C(=O)NC4`, the residual activity came to 3.88%.

Another assay concerns the target LTK (human) (UniProt P29376). The description is as above. The note with it: compound 0.5 µM; ATP 10 µM.
Consider `COC(=O)[C@]1(O)C[C@@H]2O[C@@]1(C)n1c3ccccc3c3c4c(c5c6ccccc6n2c5c31)C(=O)NC4`, for which the residual activity turned out to be 9.78%.

The target in a further assay is PRKCH (human) (UniProt P24723). The description is as above. The note with it: compound 0.5 µM; ATP 10 µM.
Sequence of PRKCH (human) (P24723 whole entry, looked up): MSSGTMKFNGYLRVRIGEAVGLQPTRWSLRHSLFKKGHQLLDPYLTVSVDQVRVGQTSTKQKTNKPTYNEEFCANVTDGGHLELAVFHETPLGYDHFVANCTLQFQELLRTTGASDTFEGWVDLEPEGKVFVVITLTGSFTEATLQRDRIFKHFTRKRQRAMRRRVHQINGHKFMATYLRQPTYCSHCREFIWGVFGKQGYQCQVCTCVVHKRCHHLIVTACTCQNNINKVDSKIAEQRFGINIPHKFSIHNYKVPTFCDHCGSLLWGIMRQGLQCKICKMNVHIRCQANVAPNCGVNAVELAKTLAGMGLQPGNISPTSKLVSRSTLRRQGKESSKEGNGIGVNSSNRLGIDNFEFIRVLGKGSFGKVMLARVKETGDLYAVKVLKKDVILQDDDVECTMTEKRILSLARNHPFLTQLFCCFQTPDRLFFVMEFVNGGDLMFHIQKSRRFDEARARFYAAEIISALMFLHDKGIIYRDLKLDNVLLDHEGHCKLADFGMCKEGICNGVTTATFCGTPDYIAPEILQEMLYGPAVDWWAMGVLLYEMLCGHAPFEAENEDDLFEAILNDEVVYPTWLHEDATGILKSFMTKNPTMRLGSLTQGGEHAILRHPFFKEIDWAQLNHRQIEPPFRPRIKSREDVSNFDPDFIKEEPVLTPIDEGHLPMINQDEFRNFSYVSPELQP
As for `COC(=O)[C@]1(O)C[C@@H]2O[C@@]1(C)n1c3ccccc3c3c4c(c5c6ccccc6n2c5c31)C(=O)NC4`, the residual activity worked out at 20.5%.

In a further assay the target is STK33 (human) (UniProt Q9BYT3). The description is as above. The note with it: compound 0.5 µM; ATP 10 µM.
Sequence of STK33 (human) (Q9BYT3 whole entry, looked up): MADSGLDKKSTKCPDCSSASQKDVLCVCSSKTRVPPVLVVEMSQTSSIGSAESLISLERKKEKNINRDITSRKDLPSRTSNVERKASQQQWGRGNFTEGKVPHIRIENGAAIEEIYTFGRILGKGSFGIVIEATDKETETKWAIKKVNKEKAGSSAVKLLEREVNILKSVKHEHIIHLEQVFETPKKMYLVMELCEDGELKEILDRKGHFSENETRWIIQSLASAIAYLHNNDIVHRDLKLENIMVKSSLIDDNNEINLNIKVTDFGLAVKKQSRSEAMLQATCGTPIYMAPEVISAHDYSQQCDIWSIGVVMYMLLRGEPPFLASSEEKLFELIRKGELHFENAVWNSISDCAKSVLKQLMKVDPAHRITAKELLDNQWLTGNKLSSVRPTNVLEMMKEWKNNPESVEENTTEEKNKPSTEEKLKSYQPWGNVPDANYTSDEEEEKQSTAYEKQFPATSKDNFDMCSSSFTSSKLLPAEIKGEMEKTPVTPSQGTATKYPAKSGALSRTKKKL
For the molecule `COC(=O)[C@]1(O)C[C@@H]2O[C@@]1(C)n1c3ccccc3c3c4c(c5c6ccccc6n2c5c31)C(=O)NC4`, the residual activity is 12.5%.

A further assay relates to ARAF (human), P10398 [Y301D/Y302D]. The description is as above. The note with it: compound 0.5 µM; ATP 10 µM.
Sequence of ARAF (human), P10398 [Y301D/Y302D] (P10398 whole entry Y301D/Y302D, looked up): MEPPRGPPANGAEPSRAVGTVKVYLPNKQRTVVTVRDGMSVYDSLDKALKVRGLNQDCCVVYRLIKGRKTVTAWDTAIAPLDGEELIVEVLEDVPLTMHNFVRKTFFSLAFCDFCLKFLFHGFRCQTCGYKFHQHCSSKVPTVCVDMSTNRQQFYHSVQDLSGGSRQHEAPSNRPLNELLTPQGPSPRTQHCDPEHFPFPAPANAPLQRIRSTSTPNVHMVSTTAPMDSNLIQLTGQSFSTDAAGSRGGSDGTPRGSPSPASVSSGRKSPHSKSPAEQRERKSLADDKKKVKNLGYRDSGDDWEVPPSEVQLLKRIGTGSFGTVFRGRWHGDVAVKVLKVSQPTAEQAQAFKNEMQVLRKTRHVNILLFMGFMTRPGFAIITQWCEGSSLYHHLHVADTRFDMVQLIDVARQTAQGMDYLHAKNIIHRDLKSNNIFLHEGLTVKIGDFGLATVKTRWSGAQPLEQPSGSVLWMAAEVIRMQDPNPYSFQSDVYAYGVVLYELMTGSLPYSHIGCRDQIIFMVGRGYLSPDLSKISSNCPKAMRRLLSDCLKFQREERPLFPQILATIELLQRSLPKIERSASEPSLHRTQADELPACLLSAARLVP
With `COc1ccc(COc2ccc(Cc3cnc(N)nc3N)cc2OC)cc1`, the residual activity is 96.6%.

For `Nc1nnc2[nH]c3ccccc3nc1-2`, the residual activity came out at 119%.

As to `COc1cc2ncnc(Nc3ccc(Oc4ccccc4)cc3)c2cc1OC`, the residual activity came to 73.3%.

Regarding `CC(C)[C@H](CO)Nc1nc(Nc2cc(N)cc(Cl)c2)c2ncn(C(C)C)c2n1`, the residual activity was 82.4%.

`O=S(=O)(NCCNC/C=C/c1ccc(Br)cc1)c1cccc2cnccc12`: the residual activity was determined as 95.8%.

For the molecule `Cn1sc(=O)n(Cc2ccccc2)c1=O`, the residual activity was 94.6%.

Take `COc1cccc(-c2cc(=O)c3ccccc3o2)c1N`: the residual activity was 98.9%.

Take `COc1ccc(CNC(=O)Nc2ncc([N+](=O)[O-])s2)cc1`: the residual activity stood at 91%.

Turning to `c1ccc(-c2n[nH]c3c2oc2ccccc23)cc1`, the residual activity turned out to be 93.8%.

As for `O=C(CCCc1ccc(-c2ccccc2F)cc1)Nc1ccc(O)cc1`, the residual activity came out at 104%.

Consider `Nc1ncnc2[nH]nc(Nc3ccc(F)cc3)c12`, for which the residual activity was 80.7%.

Regarding `CC(C)N(CCC(=O)c1ccc2ccccc2c1)Cc1ccccc1`, the residual activity worked out at 104%.

On to `Cc1[nH]c(/C=C2\C(=O)Nc3ccc(S(=O)(=O)N(C)c4cccc(Cl)c4)cc32)c(C)c1C(=O)N1CCN(C)CC1`, for which the residual activity turned out to be 120%.

Consider `COc1ccc(Cl)cc1NC(=O)Nc1cc(C)nc2ccccc12`, for which the residual activity amounted to 92.4%.

Turning to `CNC(=O)c1cc(Oc2ccc(NC(=O)Nc3ccc(Cl)c(C(F)(F)F)c3)cc2)ccn1`, the residual activity was 7.04%.

As to `CCn1cnc2c(Nc3cccc(Cl)c3)nc(N[C@@H]3CCCC[C@@H]3N)nc21`, the residual activity came out at 116%.

On to `COc1cc2c(N3CCN(C(=O)Nc4ccc(OC(C)C)cc4)CC3)ncnc2cc1OCCCN1CCCCC1`, for which the residual activity stood at 103%.

In the case of `O=C1NC(=O)/C(=C\c2ccc3nccnc3c2)S1`, the residual activity is 103%.

`Cc1ccc(Nc2nccc(N(C)c3ccc4c(C)n(C)nc4c3)n2)cc1S(N)(=O)=O`: the residual activity was found to be 76.5%.

Take `CN(C)c1ccc(/C=C2\C(=O)Nc3ccccc32)cc1`: the residual activity is 94.3%.

As for `CO[C@@H]1[C@H](N(C)C(=O)c2ccccc2)C[C@H]2O[C@]1(C)n1c3ccccc3c3c4c(c5c6ccccc6n2c5c31)C(=O)NC4`, the residual activity was found to be 122%.

With `COc1cc2ncnc(Nc3cccc(Cl)c3)c2cc1OC`, the residual activity turned out to be 108%.

For `N#CCCc1ccc2c(c1)-c1[nH]c3ccc([N+](=O)[O-])cc3c1CC(=O)N2`, the residual activity was found to be 94.5%.

Regarding `N#C/C(=C(/N)Sc1ccc(N)cc1)c1ccccc1C(F)(F)F`, the residual activity came out at 98.8%.

With `CN(C)S(=O)(=O)c1ccc2c(c1)/C(=C/c1cc3c([nH]1)CCCC3)C(=O)N2`, the residual activity amounted to 105%.

On to `CCN(CC)CCNC(=O)c1c(C)[nH]c(/C=C2\C(=O)Nc3ccc(F)cc32)c1C`, for which the residual activity was found to be 124%.

Consider `COc1cc2c(Nc3ccc(Br)cc3F)ncnc2cc1OCC1CCN(C)CC1`, for which the residual activity turned out to be 84%.

In the case of `O=C1NC(=O)C(c2c[nH]c3ccccc23)=C1c1c[nH]c2ccccc12`, the residual activity was 155%.

Consider `O=C(O)c1ccc2c3c1cccc3c(=O)n1c3ccccc3nc21`, for which the residual activity is 101%.

Consider `CCOc1cc2ncnc(Nc3cccc(Br)c3)c2cc1OCC`, for which the residual activity is 105%.

`O=C1NC(=O)/C(=C/c2ccc3c(c2)OC(F)(F)O3)S1`: the residual activity came out at 104%.

Consider `O=C(c1cc2cc(O)ccc2[nH]1)c1cc2cc(O)ccc2[nH]1`, for which the residual activity was 98.6%.

Regarding `O=c1cc(N2CCOCC2)oc2c(-c3ccccc3)cccc12`, the residual activity was 105%.

As for `Nc1ncnc2c1c(-c1ccc(Oc3ccccc3)cc1)cn2C1CCCC1`, the residual activity was found to be 53%.

For `CN(C)C[C@H]1CCn2c(c(C3=C(c4cn(C)c5ccccc45)C(=O)NC3=O)c3ccccc32)C1`, the residual activity stood at 109%.

Take `O=C1C(Cl)=C(N2C(=O)CCC2=O)C(=O)c2ccccc21`: the residual activity came to 105%.

Take `C[C@@H]1CCN(C(=O)CC#N)C[C@@H]1N(C)c1ncnc2[nH]ccc12`: the residual activity was determined as 102%.

With `CCCCc1c(-c2ccc(O)cc2)[nH]c2nccnc12`, the residual activity was 92.6%.

On to `CC[n+]1c(/C=C/N(C)c2ccccc2)n(-c2ccccc2)c2ccc(-c3nc4ccccc4s3)cc21`, for which the residual activity turned out to be 102%.

Turning to `Nc1nccc(-c2c(-c3ccc(F)cc3)ncn2C2CCNCC2)n1`, the residual activity worked out at 93.1%.

As to `CCN(CC)CCCCN1c2ccccc2Oc2ccc(Cl)cc21`, the residual activity stood at 103%.

In the case of `COc1cc2ncc(-c3ccccc3)nc2cc1OC`, the residual activity stood at 87.6%.

Turning to `COc1ccc2c(c1)/C(=C/c1cnc[nH]1)C(O)=N2`, the residual activity was 111%.

On to `COc1cc(Nc2c(C#N)cnc3cc(OCCCN4CCN(C)CC4)c(OC)cc23)c(Cl)cc1Cl`, for which the residual activity was found to be 109%.

`Nc1cccc(-c2cc3c(Oc4cccc(O)c4)ncnc3[nH]2)c1`: the residual activity stood at 57.3%.

As for `Cn1c2ccccc2c2c3c(c4c5ccccc5n(CCC#N)c4c21)CNC3=O`, the residual activity amounted to 103%.

As for `CN(C)CCCn1cc(C2=C(c3c[nH]c4ccccc34)C(=O)NC2=O)c2ccccc21`, the residual activity was 100%.

Consider `O=C1Cc2c([nH]c3ccc(Br)cc23)-c2ccccc2N1`, for which the residual activity is 104%.

In the case of `N#C/C(=C1/Nc2ccccc2S1)c1ccnc(NCCc2cccnc2)n1`, the residual activity is 97.6%.

With `N#CC(C#N)=C(N)/C(C#N)=C/c1ccc(O)cc1`, the residual activity was determined as 90.8%.

On to `Cn1cnc2cc3c(Nc4cccc(Br)c4)ncnc3cc21`, for which the residual activity stood at 119%.

`COc1cc2ncnc(N3CCN(C(=O)Nc4ccc(Oc5ccccc5)cc4)CC3)c2cc1OC`: the residual activity was found to be 105%.

As for `Nc1ncnc2c1cnn2-c1ccccc1`, the residual activity is 99.3%.

Consider `COc1ccc(OC)c2c(=S)c3ccccc3[nH]c12`, for which the residual activity amounted to 122%.

As to `N#Cc1c[nH]c2c[nH]/c(=N\Cc3cccnc3)cc2/c1=N\c1ccc(F)c(Cl)c1`, the residual activity was 106%.

As to `O=C(Nc1cccc(Nc2nccc(Nc3cccc(C(F)(F)F)c3)n2)c1)C1CC1`, the residual activity amounted to 90.2%.

As to `O=C1Nc2ccccc2/C1=C1\Nc2ccccc2\C1=N/O`, the residual activity came out at 100%.

In the case of `O=C1Nc2ccc(Br)cc2/C1=C\c1cc2c([nH]1)CCCC2`, the residual activity came to 106%.

Regarding `N#C/C(=C\c1ccc(O)c(O)c1)C(=O)NCc1ccccc1`, the residual activity came to 95.2%.

Take `CCOC(=O)c1c(C)[nH]c(/C=C2\C(=O)Nc3ccccc32)c1C`: the residual activity is 94.7%.

In the case of `COc1cc2c(cc1OC)-c1[nH]nc(Nc3cccc(F)c3)c1C2`, the residual activity stood at 98.9%.

As to `N#Cc1c(NC(=O)c2cccc3ccccc23)sc2c1CCCC2`, the residual activity came to 104%.

`Cc1ccc(NC2=CC(=O)c3sc(C)nc3C2=O)cc1`: the residual activity was determined as 127%.

With `CCN(CC)CCNC(=O)c1c(C)[nH]c(/C=C2\C(=O)Nc3ccc(Cl)cc32)c1C`, the residual activity worked out at 132%.

For the molecule `c1ccc2c(-c3ccncc3)c[nH]c2c1`, the residual activity stood at 97.7%.

With `O=C1NC(=O)c2c1c1c3ccccc3[nH]c1n1cncc21`, the residual activity was determined as 93.8%.

Regarding `CS(=O)(=O)CCNCc1ccc(-c2ccc3ncnc(Nc4ccc(OCc5cccc(F)c5)c(Cl)c4)c3c2)o1`, the residual activity came out at 85%.

On to `Oc1cccc(-c2nc(N3CCOCC3)c3oc4ncccc4c3n2)c1`, for which the residual activity was determined as 92%.

In the case of `CC#CC(=O)Nc1cc2c(Nc3ccc(F)c(Cl)c3)ncnc2cn1`, the residual activity turned out to be 74.1%.

Regarding `c1ccc(-c2n[nH]cc2-c2ccnc3ccccc23)nc1`, the residual activity turned out to be 91.5%.

For the molecule `CCC(=O)Nc1ccc2ncnc(Nc3cccc(Br)c3)c2c1`, the residual activity stood at 93.4%.

With `O=C(Nc1cccc(Nc2cc(Nc3cccc(C(F)(F)F)c3)ncn2)c1)C1CC1`, the residual activity was found to be 95.1%.

Regarding `O=C1NC(=O)c2cc(Nc3ccc(F)cc3)c(Nc3ccc(F)cc3)cc21`, the residual activity amounted to 90.7%.

Regarding `CCc1nc(-c2ccc(OC)cc2)[nH]c1-c1ccncc1`, the residual activity was found to be 99.6%.

With `O=c1[nH]c2ccccc2n1C1CCN(Cc2ccc(-c3nc4cc5[nH]cnc5cc4nc3-c3ccccc3)cc2)CC1`, the residual activity is 99.2%.

Regarding `FC(F)(F)c1ccc(/C=C/c2nc(COc3ccc(CCCCn4ccnn4)cc3)co2)cc1`, the residual activity was 102%.

With `Cc1cccc(-c2nc(C(C)(C)C)[nH]c2-c2ccc3c(c2)OCO3)n1`, the residual activity came out at 99.1%.

Consider `Cc1cc(Nc2nc(-c3ccccc3)nc3ccccc23)n[nH]1`, for which the residual activity worked out at 89.7%.

One may read the residual activity as the signal under treatment as a percentage of the control signal.
